# Numbers after ± are expanded uncertainties.
# Assay: mn = molality of the nth substance listed, in mol/kg
# Conditions: 101 kPa, Liquid; for speed of sound: Pulse-echo method
structure (smiles),measurement,setting,value
CCCC[P+](CCCC)(CCCC)CCCC.[Br-] [tetrabutylphosphonium bromide] + CCCCO,mass density,"288.15 K, m1 = 0.009722",813.972 ± 0.23 kg/m3
same,mass density,"288.15 K, m1 = 0.01455",814.314 ± 0.22 kg/m3
same,mass density,"288.15 K, m1 = 0.01936",814.655 ± 0.22 kg/m3
same,mass density,"288.15 K, m1 = 0.0242",814.996 ± 0.22 kg/m3
same,mass density,"288.15 K, m1 = 0.02918",815.348 ± 0.22 kg/m3
same,mass density,"288.15 K, m1 = 0.0369",815.894 ± 0.22 kg/m3
same,mass density,"288.15 K, m1 = 0.05364",817.07 ± 0.22 kg/m3
same,mass density,"288.15 K, m1 = 0.07129",818.321 ± 0.22 kg/m3
same,mass density,"288.15 K, m1 = 0.09251",819.818 ± 0.22 kg/m3
same,mass density,"288.15 K, m1 = 0.1101",821.058 ± 0.22 kg/m3
same,mass density,"288.15 K, m1 = 0.1395",823.126 ± 0.22 kg/m3
same,mass density,"288.15 K, m1 = 0.1776",825.836 ± 0.22 kg/m3
same,mass density,"288.15 K, m1 = 0.218",828.688 ± 0.22 kg/m3
same,mass density,"288.15 K, m1 = 0.2537",831.238 ± 0.22 kg/m3
same,mass density,"288.15 K, m1 = 0.2955",834.232 ± 0.22 kg/m3
same,mass density,"288.15 K, m1 = 0.3323",836.873 ± 0.22 kg/m3
same,mass density,"293.15 K, m1 = 0.009722",810.179 ± 0.23 kg/m3
same,mass density,"293.15 K, m1 = 0.01455",810.525 ± 0.23 kg/m3
same,mass density,"293.15 K, m1 = 0.01936",810.867 ± 0.23 kg/m3
same,mass density,"293.15 K, m1 = 0.0242",811.209 ± 0.23 kg/m3
same,mass density,"293.15 K, m1 = 0.02918",811.563 ± 0.23 kg/m3
same,mass density,"293.15 K, m1 = 0.0369",812.109 ± 0.23 kg/m3
same,mass density,"293.15 K, m1 = 0.05364",813.293 ± 0.23 kg/m3
same,mass density,"293.15 K, m1 = 0.07129",814.549 ± 0.23 kg/m3
same,mass density,"293.15 K, m1 = 0.09251",816.049 ± 0.23 kg/m3
same,mass density,"293.15 K, m1 = 0.1101",817.297 ± 0.23 kg/m3
same,mass density,"293.15 K, m1 = 0.1395",819.37 ± 0.23 kg/m3
same,mass density,"293.15 K, m1 = 0.1776",822.089 ± 0.23 kg/m3
same,mass density,"293.15 K, m1 = 0.218",824.949 ± 0.22 kg/m3
same,mass density,"293.15 K, m1 = 0.2537",827.51 ± 0.22 kg/m3
same,mass density,"293.15 K, m1 = 0.2955",830.511 ± 0.22 kg/m3
same,mass density,"293.15 K, m1 = 0.3323",833.16 ± 0.22 kg/m3
same,speed of sound,"298.15 K, m1 = 0.01936",1240.1 ± 0.84 m/s
same,speed of sound,"298.15 K, m1 = 0.0369",1241 ± 0.84 m/s
same,speed of sound,"298.15 K, m1 = 0.05364",1242 ± 0.84 m/s
same,speed of sound,"298.15 K, m1 = 0.07129",1243 ± 0.84 m/s
same,speed of sound,"298.15 K, m1 = 0.09251",1244.1 ± 0.85 m/s
same,speed of sound,"298.15 K, m1 = 0.1101",1245.1 ± 0.85 m/s
same,speed of sound,"298.15 K, m1 = 0.1395",1246.7 ± 0.86 m/s
same,speed of sound,"298.15 K, m1 = 0.1776",1248.8 ± 0.87 m/s
same,speed of sound,"298.15 K, m1 = 0.218",1251.1 ± 0.87 m/s
same,speed of sound,"298.15 K, m1 = 0.2537",1252.9 ± 0.88 m/s
same,speed of sound,"298.15 K, m1 = 0.2955",1255.3 ± 0.89 m/s
same,speed of sound,"298.15 K, m1 = 0.3323",1257.1 ± 0.9 m/s
same,mass density,"298.15 K, m1 = 0.009722",806.37 ± 0.23 kg/m3
same,mass density,"298.15 K, m1 = 0.01455",806.716 ± 0.23 kg/m3
same,mass density,"298.15 K, m1 = 0.01936",807.061 ± 0.23 kg/m3
same,mass density,"298.15 K, m1 = 0.0242",807.404 ± 0.23 kg/m3
same,mass density,"298.15 K, m1 = 0.02918",807.767 ± 0.23 kg/m3
same,mass density,"298.15 K, m1 = 0.0369",808.382 ± 0.23 kg/m3
same,mass density,"298.15 K, m1 = 0.05364",809.495 ± 0.23 kg/m3
same,mass density,"298.15 K, m1 = 0.07129",810.756 ± 0.23 kg/m3
same,mass density,"298.15 K, m1 = 0.09251",812.265 ± 0.23 kg/m3
same,mass density,"298.15 K, m1 = 0.1101",813.514 ± 0.23 kg/m3
same,mass density,"298.15 K, m1 = 0.1395",815.598 ± 0.23 kg/m3
same,mass density,"298.15 K, m1 = 0.1776",818.326 ± 0.23 kg/m3
same,mass density,"298.15 K, m1 = 0.218",821.197 ± 0.23 kg/m3
same,mass density,"298.15 K, m1 = 0.2537",823.765 ± 0.23 kg/m3
same,mass density,"298.15 K, m1 = 0.2955",826.778 ± 0.23 kg/m3
same,mass density,"298.15 K, m1 = 0.3323",829.434 ± 0.23 kg/m3
same,mass density,"303.15 K, m1 = 0.009722",802.533 ± 0.23 kg/m3
same,mass density,"303.15 K, m1 = 0.01455",802.882 ± 0.23 kg/m3
same,mass density,"303.15 K, m1 = 0.01936",803.227 ± 0.23 kg/m3
same,mass density,"303.15 K, m1 = 0.0242",803.574 ± 0.23 kg/m3
same,mass density,"303.15 K, m1 = 0.02918",803.93 ± 0.23 kg/m3
same,mass density,"303.15 K, m1 = 0.0369",804.48 ± 0.23 kg/m3
same,mass density,"303.15 K, m1 = 0.05364",805.673 ± 0.23 kg/m3
same,mass density,"303.15 K, m1 = 0.07129",806.941 ± 0.23 kg/m3
same,mass density,"303.15 K, m1 = 0.09251",808.455 ± 0.23 kg/m3
same,mass density,"303.15 K, m1 = 0.1101",809.71 ± 0.23 kg/m3
same,mass density,"303.15 K, m1 = 0.1395",811.804 ± 0.23 kg/m3
same,mass density,"303.15 K, m1 = 0.1776",814.54 ± 0.23 kg/m3
same,mass density,"303.15 K, m1 = 0.218",817.424 ± 0.23 kg/m3
same,mass density,"303.15 K, m1 = 0.2537",820.001 ± 0.23 kg/m3
same,mass density,"303.15 K, m1 = 0.2955",823.022 ± 0.23 kg/m3
same,mass density,"303.15 K, m1 = 0.3323",825.687 ± 0.23 kg/m3
same,mass density,"308.15 K, m1 = 0.009722",798.665 ± 0.24 kg/m3
same,mass density,"308.15 K, m1 = 0.01455",799.017 ± 0.24 kg/m3
same,mass density,"308.15 K, m1 = 0.01936",799.366 ± 0.24 kg/m3
same,mass density,"308.15 K, m1 = 0.0242",799.712 ± 0.24 kg/m3
same,mass density,"308.15 K, m1 = 0.02918",800.07 ± 0.24 kg/m3
same,mass density,"308.15 K, m1 = 0.0369",800.621 ± 0.23 kg/m3
same,mass density,"308.15 K, m1 = 0.05364",801.825 ± 0.23 kg/m3
same,mass density,"308.15 K, m1 = 0.07129",803.095 ± 0.23 kg/m3
same,mass density,"308.15 K, m1 = 0.09251",804.62 ± 0.23 kg/m3
same,mass density,"308.15 K, m1 = 0.1101",805.879 ± 0.23 kg/m3
same,mass density,"308.15 K, m1 = 0.1395",807.981 ± 0.23 kg/m3
same,mass density,"308.15 K, m1 = 0.1776",810.729 ± 0.23 kg/m3
same,mass density,"308.15 K, m1 = 0.218",813.625 ± 0.23 kg/m3
same,mass density,"308.15 K, m1 = 0.2537",816.21 ± 0.23 kg/m3
same,mass density,"308.15 K, m1 = 0.2955",819.242 ± 0.23 kg/m3
same,mass density,"308.15 K, m1 = 0.3323",821.922 ± 0.23 kg/m3
same,mass density,"313.15 K, m1 = 0.009722",794.76 ± 0.24 kg/m3
same,mass density,"313.15 K, m1 = 0.01455",795.113 ± 0.24 kg/m3
same,mass density,"313.15 K, m1 = 0.01936",795.464 ± 0.24 kg/m3
same,mass density,"313.15 K, m1 = 0.0242",795.815 ± 0.24 kg/m3
same,mass density,"313.15 K, m1 = 0.02918",796.175 ± 0.24 kg/m3
same,mass density,"313.15 K, m1 = 0.0369",796.727 ± 0.24 kg/m3
same,mass density,"313.15 K, m1 = 0.05364",797.943 ± 0.24 kg/m3
same,mass density,"313.15 K, m1 = 0.07129",799.213 ± 0.24 kg/m3
same,mass density,"313.15 K, m1 = 0.09251",800.743 ± 0.24 kg/m3
same,mass density,"313.15 K, m1 = 0.1101",802.009 ± 0.24 kg/m3
same,mass density,"313.15 K, m1 = 0.1395",804.127 ± 0.24 kg/m3
same,mass density,"313.15 K, m1 = 0.1776",806.888 ± 0.24 kg/m3
same,mass density,"313.15 K, m1 = 0.218",809.794 ± 0.24 kg/m3
same,mass density,"313.15 K, m1 = 0.2537",812.388 ± 0.23 kg/m3
same,mass density,"313.15 K, m1 = 0.2955",815.431 ± 0.23 kg/m3
same,mass density,"313.15 K, m1 = 0.3323",818.127 ± 0.23 kg/m3
same,mass density,"323.15 K, m1 = 0.009722",786.817 ± 0.25 kg/m3
same,mass density,"323.15 K, m1 = 0.01455",787.175 ± 0.24 kg/m3
same,mass density,"323.15 K, m1 = 0.01936",787.531 ± 0.24 kg/m3
same,mass density,"323.15 K, m1 = 0.0242",787.89 ± 0.24 kg/m3
same,mass density,"323.15 K, m1 = 0.02918",788.253 ± 0.24 kg/m3
same,mass density,"323.15 K, m1 = 0.0369",788.815 ± 0.24 kg/m3
same,mass density,"323.15 K, m1 = 0.05364",790.046 ± 0.24 kg/m3
same,mass density,"323.15 K, m1 = 0.07129",791.333 ± 0.24 kg/m3
same,mass density,"323.15 K, m1 = 0.09251",792.887 ± 0.24 kg/m3
same,mass density,"323.15 K, m1 = 0.1101",794.162 ± 0.24 kg/m3
same,mass density,"323.15 K, m1 = 0.1395",796.295 ± 0.24 kg/m3
same,mass density,"323.15 K, m1 = 0.1776",799.08 ± 0.24 kg/m3
same,mass density,"323.15 K, m1 = 0.218",802.026 ± 0.24 kg/m3
same,mass density,"323.15 K, m1 = 0.2537",804.641 ± 0.24 kg/m3
same,mass density,"323.15 K, m1 = 0.2955",807.714 ± 0.24 kg/m3
same,mass density,"323.15 K, m1 = 0.3323",810.433 ± 0.24 kg/m3
